Measured values as given in patent US20250179047A1, “5-[7-(3,4-DIHYDRO-1H-ISOQUINOLINE-2-CARBONYL)-1,2,3,4 TETRAHYDROISOQUINOLIN-6-YL]-1H-PYRROLE-3-CARBOXAMIDE DERIVATIVES, PHARMACEUTICAL COMPOSITIONS CONTAINING THEM AND THEIR USES AS PRO-APOPTOTIC AGENTS” (LES LABORATOIRES SERVIER, priority 2022, published 2025).
Where two headings read alike, the source gives them in different places.

How the values were obtained:
BCLXL WT = BCLXL WT (Homo sapiens (Human), UniProt Q07817); assay: TR-FRET competitive binding assay, BCLXL WT; details: for Ki: BCLXL WT, Ki determined from IC50, read-out: TR_FRET EKI BclxL; for TR_FRET EKI BCLxL/WT selectivty ratio: ratio Ki BCLxL / Ki BCL2 WT; for TR_FRET EKI BCLxL/WT selectivty: ratio of Ki BCLxL to BCL2 WT
Description: (§1) The relative binding potency of each compound was determined in a competitive binding assay using time resolved-fluorescence resonance energy transfer (TR-FRET). The method utilised a fluorescein labelled peptide derived from PUMA (5Flu-Ahx-[…]-NH2 wherein Ahx means 6-hexanoic acid monomer and the amino acid sequence is referred to as SEQ ID:01) which binds to a terbium labelled BCL2 or BCLXL protein. The degree of binding or corresponding compound inhibition can be quantified by the TR-FRET signal between the terbium donor and fluorescein acceptor.
(§2) The human BCL2_wild-type (also named BCL2_wt), BCL2_G101V mutant and BCLXL_wild-type were E. coli expressed as a N-terminal Halo-fusion proteins and singly labelled with Terbium on the Halo protein to afford the following amino acid sequences:
(§3) wherein the BCL2(1-207) sequence corresponds to UniProtKB® primary accession number P10415 and the BCLXL(2-196) sequence corresponds to UniProtKB® primary accession number Q07817-1.
(§4) The assay was performed in a 40 μL volume in white 384-standard well plates (Corning #3574). An 11-point serial dilution of each compound was prepared in DMSO and transferred directly to plate followed by addition of fluorescein labelled peptide and lastly protein. Final assay conditions were 0.5 nM BCL2_wt, BCL2_G101V, BCL2_D103Y, BCL2_F104I, BCL2_D111A or BCLXL_wt, 2 or 20 nM fluorescein labelled peptide, 50 mM Hepes pH 7.5, 150 mM NaCl, 0.5 mM TCEP (Tris(2-carboxyethyl)phosphine), 0.05% Tween 20, 5% DMSO. The mixture was incubated for 2 hours at 23° C.
(§5) TR-FRET measurements were performed on a Biotek Synergy Neo plate reader. TR-FRET was measured by excitation of the Terbium-donor at 340 nm and subsequent (delay time 100 μs) measurement of terbium and fluorescein emission at 495 nm and 520 nm, respectively, over a collection time of 300 μs. The TR-FRET signal was calculated as the emission-ratio at 520 nm over 495 nm.
(§6) The TR-FRET ratio readout for test compounds was normalized against 0% inhibition controls wells and 100% inhibition control wells. Test compound potency (IC50) was estimated by nonlinear regression using the sigmoidal dose-response (variable slope) using Xlfit 4 (IDBS, Guildford, Surrey, UK, model 205). Were the IC50 could not be determined the % inhibition at the highest tested concentration is given.
(§7) y=(A+((B−A)/(1+((C/x)^D))))
(§8) where y is the normalized TR-TRET ratio measurement for a given concentration of test compound, x is the concentration of test compound, A is the estimated efficacy (% inhibition) at infinite compound dilution, and B is the maximal efficacy (% inhibition). C is the IC50 value and D is the Hill slope coefficient.
(§9) The K1 values were determined from the IC50 values according to Cer et al, Nucleic Acids Res, 2009, July 1; 37 (WebServer issue): W441-W445.

BCL2 G101V [1] = assay: TR-FRET competitive binding assay, BCL2 G101V; design: species or system human; details: for TR_FRET EKI G101V/WT selectivty ratio: ratio Ki BCL2 G101V / Ki BCL2 WT; for TR_FRET EKI G101V/WT selectivty: ratio of Ki BCL2 G101V to BCL2 WT
Description: as §1, §2, §3, §4, §5, §6, §7, §8, §9

BCL2 G101V [2] = target: BCL2 G101V (Homo sapiens, UniProt P10415, G101V); assay: TR-FRET competitive binding assay, BCL2 G101V; details: BCL2 G101V; Ki determined from IC50; read-out: TR_FRET EKI_Bcl2 G101V
Description: as §1, §2, §3, §4, §5, §6, §7, §8, §9

BCL2 D103Y = BCL2 D103Y (Homo sapiens, UniProt P10415, D103Y); assay: TR-FRET competitive binding assay, BCL2 D103Y; details: Ki determined from IC50, read-out: TR_FRET EKI_Bcl2 D103Y
Description: as §1, §2, §3, §4, §5, §6, §7, §8, §9

KMS-12-PE Bcl-2 WT = assay: In vitro cytotoxicity CellTiter-Glo 48 h, KMS-12-PE Bcl-2 WT; type: cell-based; details: Homo sapiens, KMS-12-PE, C50 = concentration needed to reach 50% of the cellular viability
Description: KMS-12-PE (ACC 606) were purchased from the Leibniz-Institute DSMZ (Braunschweig, Germany) and were grown at 37° C. in a humidified atmosphere with […] in media recommended by the suppliers. Lentiviral particles containing Bcl-2 wild type (also named “Bcl2 WT”) and Bcl-2 mutated on G101V (also named “Bcl2 G101V”) were cloned into pcLV-CMV-DEST-IRES-TagRFP. Lentiviral particles (1×106) were mixed with Polybrene at 8 µg/ml and transduced by spinoculation for 1 h at 32° C. and incubated overnight. After 8 days, TagRFP positive-cells were sorted by FACS. BCL2 expression was monitored by immunoblotting using anti-Flag and anti-BCL2 antibodies.
Cellular viability was monitored with the cell viability assay (CellTiter-Glo®) on KMS-12-PE WT and G101V cell lines. The CellTiter-Glo® (CTG) Luminescent Cell Viability Assay (from Promega) is a homogeneous method to determine the number of viable cells in culture based on quantitation of the ATP present, which signals the presence of metabolically active cells.
Dose response of compounds are performed with 10 mM stock solutions (DMSO), 11-points curve, in a 384-well compound plate. The assay plate is prepared by stamping 40 nL from compound dilution plate of all different concentrations (e.g. 10 mM to have final […] assay test) into a cell culture microplate, using Echo acoustic liquid handling (Labcyte, Beckman). 40 μl of cell solution is added and cells are incubated with compounds for 48 h at 37° C., 5% CO2. CTG was added to the cells (according to the manufacturer instructions) and luminescence intensity was recorded using the Pherastar plate reader (BMG).
This assay provides in vitro cellular potency of the tested Bcl-2 inhibitors, measuring the C50, defined as the concentration needed to reach 50% of the cellular viability.

BCL2 WT = BCL2 WT (Homo sapiens (Human), UniProt P10415); assay: TR-FRET competitive binding assay, BCL2 WT
Description: as §1, §2, §3, §4, §5, §6, §7, §8, §9

[3] = Ki determined from IC50, read-out: TR_FRET EKI_Bcl2 WT
[4] = Ki determined from IC50, read-out: TR_FRET EKI_Bcl2

Sequence of BCLXL WT (Q07817 other isoform, or with tags, fused parts or gaps): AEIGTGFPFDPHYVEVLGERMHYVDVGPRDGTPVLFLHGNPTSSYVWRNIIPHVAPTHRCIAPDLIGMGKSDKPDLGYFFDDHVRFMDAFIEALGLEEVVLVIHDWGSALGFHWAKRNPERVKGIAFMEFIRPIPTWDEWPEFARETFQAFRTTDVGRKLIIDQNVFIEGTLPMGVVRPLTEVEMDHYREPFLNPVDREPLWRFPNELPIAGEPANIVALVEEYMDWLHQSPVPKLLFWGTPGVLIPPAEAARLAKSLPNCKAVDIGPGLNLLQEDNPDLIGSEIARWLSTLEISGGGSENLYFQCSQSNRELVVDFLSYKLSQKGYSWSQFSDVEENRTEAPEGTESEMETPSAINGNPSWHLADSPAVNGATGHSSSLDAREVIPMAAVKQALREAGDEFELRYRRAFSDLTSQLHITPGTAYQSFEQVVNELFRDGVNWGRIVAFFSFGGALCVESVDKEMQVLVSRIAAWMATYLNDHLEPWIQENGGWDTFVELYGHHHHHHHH

Row | SMILES | Ki (BCLXL WT) | TR_FRET EKI BCLxL/WT selectivty ratio (BCLXL WT) | TR_FRET EKI G101V/WT selectivty ratio (BCL2 G101V [1]) | Ki (BCL2 G101V [2]) | Ki (BCL2 D103Y) | Ki (BCL2 WT; [3]) | TR_FRET EKI BCLxL/WT selectivty (BCLXL WT) | TR_FRET EKI G101V/WT selectivty (BCL2 G101V [1]) | Ki (BCL2 WT; [4]) | IC50 (KMS-12-PE Bcl-2 WT)
1 | Cc1nn(C)cc1N(C(=O)c1cc(-c2cc3c(cc2C(=O)N2Cc4ccccc4C[C@H]2C)CN(C(=O)Cc2ccc(OCCN4CCOCC4)cc2)CC3)n(C)c1C)c1ccccc1 [Example 188, N-(1,3-dimethylpyrazol-4-yl)-1,2-dimethyl-5-[7-[(3R)-3-methyl-3,4-dihydro-1H-isoquinoline-2-carbonyl]-2-[2-[4-(2-morpholinoethoxy)phenyl]acetyl]-3,4-dihydro-1H-isoquinolin-6-yl]-N-phenyl-pyrrole-3-carboxamide] | 23.9 nM | 769.6 | 71.6 | 2.2 nM | 0.09 nM | 0.03 nM | – | – | – | 0.0113 µM
2 | Cc1nn(C)cc1N(C(=O)c1cc(-c2cc3c(cc2C(=O)N2Cc4ccccc4C[C@H]2C)CN(C(=O)Cc2ccc(OCCN(C)C)cc2)CC3)n(C)c1C)c1ccccc1 [Example 221, 5-[2-[2-[4-[2-(dimethylamino)ethoxy]phenyl]acetyl]-7-[(3R)-3-methyl-3,4-dihydro-1H-isoquinoline-2-carbonyl]-3,4-dihydro-1H-isoquinolin-6-yl]-N-(1,3-dimethylpyrazol-4-yl)-1,2-dimethyl-N-phenyl-pyrrole-3-carboxamide] | 28.3 nM | 118.0 | 79.5 | 19.1 nM | 0.53 nM | 0.24 nM | – | – | – | 0.121 µM
3 | Cc1c(C(=O)N(c2ccccc2)c2cc(F)cc(C#N)c2)cc(-c2cc3c(cc2C(=O)N2Cc4ccccc4C[C@H]2C)CN(C(=O)Cc2ccc(OCCN4CCOCC4)cc2F)CC3)n1C [Example 227, N-(3-cyano-5-fluoro-phenyl)-5-[2-[2-[2-fluoro-4-(2-morpholinoethoxy)phenyl]acetyl]-7-[(3R)-3-methyl-3,4-dihydro-1H-isoquinoline-2-carbonyl]-3,4-dihydro-1H-isoquinolin-6-yl]-1,2-dimethyl-N-phenyl-pyrrole-3-carboxamide] | 37.2 nM | – | – | 10.8 nM | 0.33 nM | – | 219.1 | 63.7 | 0.17 nM | 0.0254 µM
4 | COc1ncc(N(C(=O)c2cc(-c3cc4c(cc3C(=O)N3Cc5ccccc5C[C@H]3C)CN(C(=O)Cc3ccc(OCCN(C)C)cc3F)CC4)n(C)c2C)c2ccccc2)cc1F [Example 219, 5-[2-[2-[4-[2-(dimethylamino)ethoxy]-2-fluoro-phenyl]acetyl]-7-[(3R)-3-methyl-3,4-dihydro-1H-isoquinoline-2-carbonyl]-3,4-dihydro-1H-isoquinolin-6-yl]-N-(5-fluoro-6-methoxy-3-pyridyl)-1,2-dimethyl-N-phenyl-pyrrole-3-carboxamide] | 2.9 nM | 57.8 | 89.8 | 4.6 nM | 0.13 nM | 0.05 nM | – | – | – | 0.131 µM
5 | Cc1c(N(C(=O)c2cc(-c3cc4c(cc3C(=O)N3Cc5ccccc5C[C@H]3C)CN(C(=O)Cc3ccc(OCCN5CCOCC5)cc3)CC4)n(C)c2C)c2ccccc2)cnn1C(F)F [Example 215, N-[1-(difluoromethyl)-5-methyl-pyrazol-4-yl]-1,2-dimethyl-5-[7-[(3R)-3-methyl-3,4-dihydro-1H-isoquinoline-2-carbonyl]-2-[2-[4-(2-morpholinoethoxy)phenyl]acetyl]-3,4-dihydro-1H-isoquinolin-6-yl]-N-phenyl-pyrrole-3-carboxamide] | 16 nM | 280.7 | 80.9 | 4.6 nM | 0.13 nM | 0.06 nM | – | – | – | 0.0147 µM

Second part, led by results:

Row | Ki (BCLXL WT) | TR_FRET EKI BCLxL/WT selectivty ratio (BCLXL WT) | TR_FRET EKI G101V/WT selectivty ratio (BCL2 G101V [1]) | Ki (BCL2 G101V [2]) | Ki (BCL2 D103Y) | Ki (BCL2 WT; [3]) | TR_FRET EKI BCLxL/WT selectivty (BCLXL WT) | TR_FRET EKI G101V/WT selectivty (BCL2 G101V [1]) | Ki (BCL2 WT; [4]) | SMILES | IC50 (KMS-12-PE Bcl-2 WT)
6 | 11.9 nM | 137.8 | 15.3 | 1.3 nM | 0.16 nM | 0.09 nM | – | – | – | Cc1c(N(C(=O)c2cc(-c3cc4c(cc3C(=O)N3Cc5ccccc5C[C@H]3CN3CCCCC3)CN(C(=O)C(F)(F)c3ccc(OCCN5CCOCC5)cc3)CC4)n(C)c2C)c2ccc(O)cc2)cc(C#N)n1C [Example 178, N-(5-cyano-1,2-dimethyl-pyrrol-3-yl)-5-[2-[2,2-difluoro-2-[4-(2-morpholinoethoxy)phenyl]acetyl]-7-[(3S)-3-(1-piperidylmethyl)-3,4-dihydro-1H-isoquinoline-2-carbonyl]-3,4-dihydro-1H-isoquinolin-6-yl]-N-(4-hydroxyphenyl)-1,2-dimethyl-pyrrole-3-carboxamide] | 0.0109 µM
7 | 37.5 nM | – | – | 6.7 nM | 0.15 nM | – | 323 | 57.8 | 0.116 nM | Cc1c(C(=O)N(c2ccccc2)c2cnn(C)c2)cc(-c2cc3c(cc2C(=O)N2Cc4ccccc4C[C@H]2CN2CCCCC2)CN(C(=O)Cc2ccc(OCCC4CCOCC4)cc2)CC3)n1C [Example 240] | 0.0446 µM
8 | 33.4 nM | 176.8 | 92.0 | 17.4 nM | 1.99 nM | 0.19 nM | – | – | – | COCC(=O)N1CCc2cc(-c3cc(C(=O)N(c4ccccc4)c4cc(C#N)n(C)c4C)c(C)n3C)c(C(=O)N3Cc4ccccc4C[C@H]3CN3CCCCC3)cc2C1 [Example 189, N-(5-cyano-1,2-dimethyl-pyrrol-3-yl)-5-[2-(2-methoxyacetyl)-7-[(3S)-3-(1-piperidylmethyl)-3,4-dihydro-1H-isoquinoline-2-carbonyl]-3,4-dihydro-1H-isoquinolin-6-yl]-1,2-dimethyl-N-phenyl-pyrrole-3-carboxamide] | 0.0299 µM
